Legend:
Assay in all cases: Challenge test in broth
Type in all cases: cell-based
Conditions in all cases: Tryptic Soy Broth, blend added at 0.5% v/v
[1] = tested on: Candida albicans (ATCC 10231)
Text: (§1) A challenge protocol similar to the CTFA method was followed to assess efficacy against a broad spectrum of microorganisms. The four separate inocula were: Staphylococcus aureus (ATCC 6538), Pseudomonas aeruginosa (ATCC 9027) and Enterobacter gergoviae (cosmetic isolate), Candida albicans (ATCC 10231), and mixed molds Aspergillus niger (ATCC 6275) and a Penicillium sp. cosmetic isolate. Tubes containing 20 milliliters of broth were inoculated with approximately 1,500,000 bacteria per gram, 50,000 yeast cells per gram or 100,000 mold spores per gram. Individual challenges were prepared from overnight slants of bacteria and yeast cultures and from heavily sporulating mold cultures, 7 to 10 days old. All samples were plated quantitatively for viable organisms after 24 hours and 8 days.

[2] = tested on: mixed molds Aspergillus niger (ATCC 6275) and a Penicillium sp. cosmetic isolate
Text: as §1

[3] = tested on: Pseudomonas aeruginosa (ATCC 9027) and Enterobacter gergoviae (cosmetic isolate)
Text: as §1

[4] = tested on: Staphylococcus aureus (ATCC 6538)
Text: as §1

**Q.** Which “Colony Forming Units per Milliliter of Broth (CFU/ml) after 8 Days” value (shortened to “Colony Forming Units per Milliliter”) [1] does the source give for OCCOc1ccccc1 [2-Phenoxyethanol] here?
**A.** 4.0 × 10^3 CFU/ml

**Q.** And the “Colony Forming Units per Milliliter” value [2]?
**A.** 5.8 × 10^2 CFU/ml

**Q.** What about the “Colony Forming Units per Milliliter” value [3] of the same compound?
**A.** 9.1 × 10^7 CFU/ml

**Q.** And the “Colony Forming Units per Milliliter” value [4]?
**A.** 3.2 × 10^8 CFU/ml

Source: patent US7854940B2, “Broad spectrum preservation blends” (Arch Chemicals, Inc., priority 2004, dated 2010)
